# How the values were obtained:
# NB4R2 = assay: In vitro cytotoxicity, MTS assay; type: cell-based; details: 72 h, read-out: Inhibitory concentration (IC50) NB4R2
# Protocol: (§1) Cladribine phosphoramidate derivatives were evaluated against six leukaemic cell lines (KG1, U937, K562, NB4R2, NB4 and HL-60) in vitro. Inhibitory concentration (IC50) at which 50% of the cells were no longer viable (calculated using MTS assay) was determined. Cells were treated with Cladribine and its 3′-phosphoramidate derivatives at concentrations between 100 μM and 0.02 μM by serial dilutions and incubated for 72 h at 37° C., 5% CO2 in a final volume of 90 μL. Twenty microliters of MTS reagent (Promega UK Ltd, Southampton, Hants) was added to the tumour cell cultures and reaction incubated for a further 4 h at 37° C., 5% CO2. The absorbance of the reaction after this time was read by spectrophotometry at 490 nm and the percentage of viable cells calculated relative to untreated control cells in the same assay.
# K562 = assay: In vitro cytotoxicity, MTS assay; type: cell-based; details: Homo sapiens, 72 h, read-out: Inhibitory concentration (IC50) K562
# Protocol: as §1
# HL-60 = assay: In vitro cytotoxicity, MTS assay; type: cell-based; details: Homo sapiens, 72 h, read-out: Inhibitory concentration (IC50) HL-60
# Protocol: as §1
# U937 = assay: In vitro cytotoxicity, MTS assay; type: cell-based; details: Homo sapiens, U-937, 72 h, read-out: Inhibitory concentration (IC50) U937
# Protocol: as §1
# NB4 = assay: In vitro cytotoxicity, MTS assay; type: cell-based; details: Homo sapiens, NB-4, 72 h, read-out: Inhibitory concentration (IC50) NB4
# Protocol: as §1
# KG1 = assay: In vitro cytotoxicity, MTS assay; type: cell-based; details: Homo sapiens, KG-1, 72 h, read-out: Inhibitory concentration (IC50) KG1
# Protocol: as §1
# [1] = system: HL-60 Promyelocytic leukaemia; assay: In vitro viability assay, CellTiterGlo; type: cell-based; details: for Top Inhibition (%): HL-60, CellTiterGlo, 72 h; for EC50: Homo sapiens, HL-60, 72 h, read-out: EC50 (μM) Ab
# Protocol: (§2) In vitro viability assay was performed to assess the effects of compounds on cell viability in selected cell lines over 72 h using the CellTiterGlo (CTG, Promega-G7573) assay. The tests were performed in duplicates with treatment of compounds at 9 points, 3.16 folds titration in 96 well plates over ˜72 h. The compound starting concentrations were […]. Cell viability assay using CellTiterGlo in 96-well plate were performed. Compounds were dissolved to 40 mM with thawed 100% DMSO. Compounds were serially diluted at 3.16-fold in thawed DMSO, and warmed to 37° C. before being dissolved in media (2 μl+200 μl). After compounds were dissolved in media, media containing compounds were warmed to 37° C. in incubator and then compounds in media were added to cell plates (50 μl+50 μl) in duplicates. The compounds' final concentrations were from 198 μM to 19.9 nM. Solubility of all compounds was checked and recorded again, then the plates were transferred to CO2 tissue culture incubator immediately and incubated for 3 days. DMSO final concentration is 0.5%.
# [2] = system: Z-138 Mantle cell lymphoma; assay: In vitro viability assay, CellTiterGlo; type: cell-based; details: for EC50: Homo sapiens, Z-138, 72 h, read-out: EC50 (μM) Ab; for Top Inhibition (%): Z-138, CellTiterGlo, 72 h
# Protocol: as §2
# [3] = system: HEL92.1.7 Erythroleukaemia; assay: In vitro viability assay, CellTiterGlo; type: cell-based; details: for Top Inhibition (%): HEL92.1.7, CellTiterGlo, 72 h; for EC50: Homo sapiens, HEL 92.1.7, 72 h, read-out: EC50 (μM) Ab
# Protocol: as §2
# [4] = system: RL Non-Hodgkin's lymphoma; assay: In vitro viability assay, CellTiterGlo; type: cell-based; details: 72 h; for Top Inhibition (%): CellTiterGlo; for EC50: Homo sapiens, read-out: EC50 (μM) Ab
# Protocol: as §2
# [5] = system: KG-1 Acute myelogenous leukaemia; assay: In vitro viability assay, CellTiterGlo; type: cell-based; details: for EC50: Homo sapiens, KG-1, 72 h, read-out: EC50 (μM) Ab; for Top Inhibition (%): KG-1, CellTiterGlo, 72 h
# Protocol: as §2
# [6] = system: MCF-7 Mammary epithelial adenocarcinoma; assay: In vitro viability assay, CellTiterGlo; type: cell-based, human; details: for EC50: Homo sapiens, MCF7, 72 h, read-out: EC50 (μM) Ab; for Top Inhibition (%): MCF-7, CellTiterGlo, 72 h
# Protocol: as §2
SMILES,IC50 (NB4R2) [nM],IC50 (K562) [nM],IC50 (HL-60) [nM],IC50 (U937) [nM],IC50 (NB4) [nM],IC50 (KG1) [nM],Top Inhibition (%) [1] [%],EC50 [1] [µM],EC50 [2] [µM],Top Inhibition (%) [2] [%],Top Inhibition (%) [3] [%],EC50 [3] [µM],Top Inhibition (%) [4] [%],EC50 [4] [µM],EC50 [5] [µM],Top Inhibition (%) [5] [%],EC50 [6] [µM],Top Inhibition (%) [6] [%]
"CCOC(=O)[C@H](C)NP(=O)(Oc1ccccc1)OC1C[C@H](n2cnc3c(N)nc(Cl)nc32)O[C@@H]1CO (stereo partly drawn) [Compound 1, 2-Chloro-2 ‘-deoxyadenosine-3’-[phenyl-(ethoxy-L-alaninyl)]-phosphate]",2520,> 10000,2680,3060,740,1760,–,–,–,–,–,–,–,–,–,–,–,–
"C[C@H](NP(=O)(Oc1ccccc1)OC1C[C@H](n2cnc3c(N)nc(Cl)nc32)O[C@@H]1CO)C(=O)OC(C)(C)C (stereo partly drawn) [Compound 2, 2-Chloro-2 ‘-deoxyadenosine-3’-[phenyl-(tert-butoxy-L-alaninyl)]-phosphate]",> 10000,> 10000,> 10000,6000,> 10000,2000,–,–,–,–,–,–,–,–,–,–,–,–
"C[C@@H](NP(=O)(Oc1ccccc1)OC1C[C@H](n2cnc3c(N)nc(Cl)nc32)O[C@@H]1CO)C(=O)OCc1ccccc1 (stereo partly drawn) [Compound 3, 2-Chloro-2 ‘-deoxyadenosine-3’-[phenyl-(benzoxy-D-alaninyl)]-phosphate]",> 10000,> 10000,> 10000,7520,7820,> 10000,–,–,–,–,–,–,–,–,–,–,–,–
"Nc1nc(Cl)nc2c1ncn2[C@H]1CC(OP(=O)(NCC(=O)OCc2ccccc2)Oc2ccccc2)[C@@H](CO)O1 (stereo partly drawn) [Compound 4, 2-Chloro-2 ‘-deoxyadenosine-3’-[phenyl-(benzoxy-glycinyl)]-phosphate]",5560,> 10000,> 10000,> 10000,8040,> 10000,–,–,–,–,–,–,–,–,–,–,–,–
"CC(C)C[C@H](NP(=O)(Oc1ccccc1)OC1C[C@H](n2cnc3c(N)nc(Cl)nc32)O[C@@H]1CO)C(=O)OCc1ccccc1 (stereo partly drawn) [Compound 5, 2-Chloro-2 ‘-deoxyadenosine-3’-[phenyl-(benzoxy-L-leucinyl)]-phosphate]",1570,> 10000,4450,> 10000,2560,5040,–,–,–,–,–,–,–,–,–,–,–,–
"CCCCCOC(=O)[C@H](CC(C)C)NP(=O)(Oc1cccc2ccccc12)OC1C[C@H](n2cnc3c(N)nc(Cl)nc32)O[C@@H]1CO (stereo partly drawn) [Compound 7, 2-Chloro-2′-deoxyadenosine-3′-[1-naphthyl-(pentoxy-L-leucinyl)] phosphate]",–,–,–,–,–,–,98,0.27,1.07,101,98.6,0.07,100,0.5,1.5,98.8,5.45,103
"C[C@H](NP(=O)(Oc1cccc2ccccc12)OC1C[C@H](n2cnc3c(N)nc(Cl)nc32)O[C@@H]1CO)C(=O)OC1CCCCC1 (stereo partly drawn) [Compound 8, 2-Chloro-2 ‘-deoxyadenosine-3’-[1-naphthyl-(cyclohexoxy-L-alaninyl)] phosphate]",–,–,–,–,–,–,96,0.46,3.5,100,98.3,0.18,98.1,0.85,2.75,98.4,7.97,101
"C[C@H](NP(=O)(Oc1ccccc1)OC1C[C@H](n2cnc3c(N)nc(Cl)nc32)O[C@@H]1CO)C(=O)OC1CCCCC1 (stereo partly drawn) [Compound 9, 2-Chloro-2′-deoxyadenosine-3′-[phenyl-(cyclohexoxy-L-alaninyl)] phosphate]",–,–,–,–,–,–,87.7,0.13,0.051,99.9,97.2,0.044,89.9,0.14,0.8,96.9,21,100
"C[C@H](NP(=O)(Oc1ccccc1)OC1C[C@H](n2cnc3c(N)nc(Cl)nc32)O[C@@H]1CO)C(=O)OCC(C)(C)C (stereo partly drawn) [Compound 10, 2-Chloro-2′-deoxyadenosine-3′-[phenyl-(2,2-dimethylpropoxy-L-alaninyl)] phosphate]",–,–,5300,–,> 10000,–,87.7,0.12,0.047,100,97.2,0.042,89.8,0.15,0.6,95,22,99.2
"CCOC(=O)C(C)(C)NP(=O)(Oc1ccccc1)OC1C[C@H](n2cnc3c(N)nc(Cl)nc32)O[C@@H]1CO (stereo partly drawn) [Compound 11, 2-Chloro-2 ‘-deoxyadenosine-3’-[phenyl-(ethoxy-2,2-dimethylglycinyl)]-phosphate]",–,–,300,–,> 10000,–,–,–,–,–,–,–,–,–,–,–,–,–
"Nc1nc(Cl)nc2c1ncn2[C@H]1CC(OP(=O)(N[C@@H](Cc2ccccc2)C(=O)OCc2ccccc2)Oc2ccccc2)[C@@H](CO)O1 (stereo partly drawn) [Compound 12, 2-Chloro-2 ‘-deoxyadenosine-3’-[phenyl-(benzoxy-L-phenylalaninyl)] phosphate]",2000,10000,2000,2000,1000,4000,–,–,–,–,–,–,–,–,–,–,–,–
"Nc1nc(Cl)nc2c1ncn2[C@H]1CC(OP(=O)(N[C@@H](Cc2ccccc2)C(=O)OCc2ccccc2)Oc2cccc3ccccc23)[C@@H](CO)O1 (stereo partly drawn) [Compound 13, 2-Chloro-2′-deoxyadenosine-3′-[1-naphthyl(benzoxy-L-phenylaninyl)] phosphate]",800,7000,1000,1000,300,1000,–,–,–,–,–,–,–,–,–,–,–,–
"CC(C)[C@H](NP(=O)(Oc1ccccc1)OC1C[C@H](n2cnc3c(N)nc(Cl)nc32)O[C@@H]1CO)C(=O)OCc1ccccc1 (stereo partly drawn) [Compound 14, 2-Chloro-2′-deoxyadenosine-3′-[phenyl-(benzoxy-L-valinyl)] phosphate]",2000,> 10000,3000,400,800,2000,–,–,–,–,–,–,–,–,–,–,–,–
"CC(C)OC(=O)[C@H](C)NP(=O)(Oc1ccccc1)OC1C[C@H](n2cnc3c(N)nc(Cl)nc32)O[C@@H]1CO (stereo partly drawn) [Compound 15, 2-Chloro-2′-deoxyadenosine-3′-[phenylaso-propoxy-L-alaninyl)] phosphate]",9000,> 10000,2000,400,6000,5000,–,–,–,–,–,–,–,–,–,–,–,–
"CCC(C)OC(=O)[C@H](C)NP(=O)(Oc1ccccc1)OC1C[C@H](n2cnc3c(N)nc(Cl)nc32)O[C@@H]1CO (stereo partly drawn) [Compound 16, 2-Chloro-2′-deoxyadenosine-3′-[phenyl-(2-butoxy-L-alaninyl)] phosphate]",> 10000,> 10000,8000,2000,9000,7000,–,–,–,–,–,–,–,–,–,–,–,–
C[C@H](NP(=O)(Oc1ccccc1)OC1C[C@H](n2cnc3c(N)nc(Cl)nc32)O[C@@H]1CO)C(=O)O[C@@H](C)c1ccccc1 (stereo partly drawn) [Compound 17],–,–,3200,–,5500,–,–,–,–,–,–,–,–,–,–,–,–,–

# Reference: patent publication US10906929B2, “Phosphoramidate nucleoside derivatives as anticancer agents” (NuCana plc, priority 2016, dated 2021)
